The source of these data is patent US11054425B2, “System and method for identification and characterization of transglutaminase species” (Roche Sequencing Solutions, Inc., priority 2014, dated 2021).

Test [1] relates to KalbTG. Put plainly: 5-mer peptide array, glutamine-substrate screening with biotinylated amine donor. It counts as biochemical, Kutzneria albida. The settings on record: incorporation of biotinylated amine-donor on 5-mer peptide array. Here is the method: To identify potential acyl-donor and amine-donor substrates of the K. albida transglutaminase, high-throughput screening on 5-mer peptide arrays was performed (FIGS. 4A and 4B). An activity of at least 1.65 U/mg for both the SlyD-fused and the mature KalbTG enzymes was confirmed by commercial assay (Zedira MTG-ANiTA-KIT; compared to 4.3 U mg^−1 by the MTG supplied with the kit and a 0.07 U/mg blank value with BSA). The assay used β-casein as a cross-linking substrate and detected deamidation by a glutamate dehydrogenase dependent oxidation of NADPH. Specific recognition motifs were identified by assaying KalbTG with peptide arrays prepared by maskless array synthesis (U.S. Pat. Pub. No 2015/0185216 to Albert et al. filed on 19 Dec. 2014). The efficiency of the transamidation reaction between 1.4 million unique 5-mer peptides and a biotinylated amine donor was quantified on two arrays in parallel and the sequences of the peptides with the highest turnovers were determined (FIG. 4A). The nine best peptides were resynthesized and tested for KalbTG activity in a standalone GLDH-coupled assay. Note that the array signal for the sequence MLAQG (SEQ ID NO:13) is marked not applicable (n. a.) as this sequence was not included on the array. Similarly, measurement of a background signal was only applicable to experiments performed on the array.
For construction of the peptide array, a library of 1,360,732 unique 5-mer peptides was designed by using all combinations of 18 natural amino acids excluding cysteine and methionine, as well as any dimer or a longer repeat of the same amino acid, and any peptide containing a dipeptide selected from HR, RH, HK, KH, RK, KR, HP, and PQ sequences. The library was synthesized in duplicate on the same array by using maskless light-directed peptide array synthesis. Each 5-mer peptide was flanked on both the N-terminus and C-terminus by 3 amino acid-long linkers synthesized by using mixture of glycine and serine having a 3:1 ratio.
To test KalbTG specificity for glutamine-containing substrate, N-(biotinyl)cadaverine was used as a substitute for a lysine substrate to biotinylate glutamine-peptides on a peptide array. KalbTG labeling reaction was performed in 1200 μL 100 mM Tris-HCl pH 8, 1 mM DTT, 50 μM N-(biotinyl)cadaverine, 0.2 ng μl^−1 KalbTG in SecureSeal™ chamber (Grace Bio-Labs) at 37° C. for 45 minutes. After incubation the chamber was removed and the array was washed in 20 mM Tris-HCl, pH7.8, 0.2 M NaCl, 1% SDS for 1 minute followed by a 1 minute wash in 20 mM Tris-HCl. Biotin linked to the array was stained with 0.3 μg ml^−1 Cy5-streptavidin in 10 mM Tris-HCl, pH7.4, 1% alkali-soluble casein, 0.05% TWEEN-20 non-ionic detergent at room temperature for 1 hour. Cy5 fluorescence intensity was measured with a fluorescence scanner at a resolution of 2 μm and a wavelength of 635 nm.

In test [2] the test system is S. mobaraensis MTG. The experiment in a line: GLDH-coupled assay in solution (NADH oxidation). The settings on record: enzyme MTG; glutamine-donor 0 to 1 mM, cadaverine 1 mM, 37° C. In kind it is biochemical, Streptomyces mobaraensis. How it is done: (§1) For the GLDH coupled assay, to determine whether the KalbTG peptides selected in the array assay were also preferred substrates in a solution reaction and to quantify cross-reactivity of KalbTG and S. mobaraensis MTG with various substrates, a continuous glutamate dehydrogenase (GLDH)-coupled assay for S. mobaraensis MTG activity (see Oteng-Pabi, et al., 2013. Analytical biochemistry 441(2): 169-173) was applied.
(§2) For glutamine substrate evaluation, the assay was performed in a transparent 96-well microtiter plate in the presence of 500 μM α-ketoglutarate, 500 μM or 1 mM cadaverine as Amine donor substituting for a lysine-containing peptide, 2 U ml^−1 of glutamate dehydrogenase (GLDH), 500 μM NADH and glutamine-containing substrate peptide (Z-[[…] (SEQ ID NO:77)], Z-[[…] (SEQ ID NO:78)], Z-[[…] (SEQ ID NO:75)], Z-[[…] (SEQ ID NO:79)], Z-[[…] (SEQ ID NO:80)], Z-[[…] (SEQ ID NO:81)], Z-[[…] (SEQ ID NO:82)], Z-[[…] (SEQ ID NO:83)], Z-[[…] (SEQ ID NO:84)], Z-[[…] (SEQ ID NO:85)], Z-[[…] (SEQ ID NO:86)], Z-[[…] (SEQ ID NO:76)] or Z-[[…] (SEQ ID NO:87)]) concentrations ranging between 0 and 1 mM in 200 mM MOPS, 1 mM EDTA pH 7.2 (total volume per well 200 μl).
Reactions were started by the addition of 5 μg ml^−1 of S. mobaraensis MTG or KalbTG and the oxidation of NADH was continuously recorded at 340 nm for 60 minutes using a Biotek Synergy H4 microplate reader, temperature controlled at 37° C., with short shaking intervals before each measurement. After a short lag phase where the GLDH was saturated by transglutaminase-mediated release of ammonia, linear rates of absorbance versus time corresponding to transglutaminase turnover were observed and subjected to Michaelis-Menten kinetic analysis. Rates of absorbance in millioptical density units per minute (mOD min^−1) were converted into molar rates of NADH turnover (pmol s^−1) using the formula of Equation 1 (previously determined by an NADH standard curve): Turnover rate=|Absorbance rate|*1.111 (Eq. 1)

For test [3], the system named is KalbTG. Put plainly: GLDH-coupled assay in solution (NADH oxidation). In kind it is biochemical, Kutzneria albida. As to conditions: kinetics, varying substrate concentrations. How it is done: KalbTG activity was obtained by measuring incorporation of a biotinylated amine-donor on the peptide array and rates of NADH oxidation at 340 nm and 37° C. in the presence of amine-donor substrate (500 μM) in the GLDH-coupled assay using 100 μM each of nine of the best-performing array-selected glutamine-containing substrates and of two S. mobaraensis MTG glutamine-containing substrates. […] Testing of the top sequences in Table 1 confirmed YRYRQ (SEQ ID NO: 1) and RYRQR (SEQ ID NO 14) as the top performing 5-mer substrates, with turnover rates of 3.52±0.08 pmol NADH s^−1 and 3.60±0.12 pmol NADH s^−1, respectively.
With reference to Table 2, KalbTG activity was obtained by measuring incorporation of a biotinylated glutamine-donor and rates of NADH oxidation at 340 nm and 37° C. in the presence of glutamine-donor substrate (200 μM) in the GLDH-coupled assay using 100 μM each of i) six of the top-performing array-selected lysine substrates, ii) cadaverine, and iii) preferred MTG lysine substrate ARSKL (SEQ ID NO:30). […] This is a small but significant increase over cadaverine (3.51±0.12 pmol s^−1) or ARSKL (SEQ ID NO:30) (3.87±0.31 pmol s^−1), a peptide previously established as a preferred MTG lysine donor motif on the peptide array. Additional details on the S. mobaraensis MTG substrate peptide ARSKL (SEQ ID NO:30) can be found in U.S. Provisional Patent Application Ser. No. 62/094,495 to Albert et al. filed on Dec. 19, 2014.
as §1, §2
For amine substrate evaluation, assay conditions were the same as for glutamine substrate evaluation with the exception that 100 μM each of amine substrate (Z-[[…] (SEQ ID NO:88)], Z-[[…] (SEQ ID NO:89)], Z-[[…] (SEQ ID NO:90)], Z-[[…] (SEQ ID NO:91)], Z-[[…] (SEQ ID NO:92)], Z-[[…] (SEQ ID NO:93)], Z-[[…] (SEQ ID NO:94)], Z-[[…] (SEQ ID NO:95)] or cadaverine) and 200 μM glutamine donor (Z-[[…] (SEQ ID NO:75)] or Z-[[…] (SEQ ID NO:76)]) were used.
Reactions were started by the addition of 5 μg ml^−1 of S. mobaraensis MTG or KalbTG and the oxidation of NADH was continuously recorded at 340 nm for 60 minutes using a Biotek Synergy H4 microplate reader, temperature controlled at 37° C., with short shaking intervals before each measurement. After a short lag phase where the GLDH was saturated by transglutaminase-mediated release of ammonia, linear rates of absorbance versus time corresponding to transglutaminase turnover were observed and subjected to Michaelis-Menten kinetic analysis. […]

Test [4] deals with Z-[GGGYRYRQGGGG (SEQ ID NO:75)]-OH. Put plainly: GLDH assay of transglutaminase enzyme activity after storage. As to conditions: 200 μM glutamine substrate, 10 mM cadaverine, 37° C., pH 7.4. It counts as biochemical. How it is done: A further experiment was performed to determine the activity of KalbTG enzymes prepared from two different constructs, and stored at two different temperatures. The KalbTGt3 (SEQ ID NO:10) and KalbTGt1 (SEQ ID NO: 12) enzymes tested were obtained respectively from the EcSlyD2-Xa-KalbTGt3-8×His-tag construct (SEQ ID NO:8) and the EcSlyD2-Xa-KalbTGt1-8×His-tag construct (SEQ ID NO:11) described in Example 3. The activity of the two KalbTG enzymes was tested after storage at either 4° C. or −20° C. and compared against the activity of commercially available S. mobaraensis MTG according to a published protocol (Oteng-Pabi, et al., 2013. Analytical biochemistry 441(2): 169-173). In particular, assays were performed at 37° C. in 200 μl total volume. The assay mixture included 200 mM MOPS, 1 mM EDTA, and 1 mM DTT at pH 7.4. Further, α-ketoglutarate and NADH were added at a concentration of 500 μM, along with 2 U/ml GLDH, and between 0.1 μg and 1.0 μg of one of the transglutaminase enzymes. The glutamine substrate was 200 μM Z-[[…] (SEQ ID NO:75)]-OH, and the amine donor was 10 mM cadaverine, where Z represents a carboxybenzyl group. All data were collected in triplicate (average of 3 wells in a microtiter plate) and baseline activity (buffer without enzyme) subtracted.

No end group written: not given here. *: point of attachment. Cbz = O=C(OCc1ccccc1)*

In the case of “DYALQ (Cbz-DYALQ) [preferred S. mobaraensis MTG glutamine-containing substrate, reference compound]”, in test [1], the “Array signal (log2)” value was found to be 7.22 log2. Moreover, in test [2], the Km came out at 847 ± 138 µM, the Vmax is given as 36.66 ± 3.33 pmol/s and the kcat amounted to 1.39 S^−1. Further, in test [3], the “reactivity of KalbTG towards substrate” value was “completely unreactive”.

B1: KalbTGt1: KalbTG enzyme without propeptide, expressed and purified with ammonium (protein)
chain: MLAPPLAEDRSYRTWRVEDYVEAWERYHGREMTEDERENLARGCIGVTVVNLNREDLSNPPLNLSFGSLRTAEAVQAALNKIVDTHPSPAQYEAAVAKDPILKRLKNVVKALPSWIDSAKLKASIFSKRFYSWQNPDWSEERAHTTYRPDRETDQVDMSTYRYRARPGYVNFDYGWFDQDTNTWWHANHEEPRMVVYQSTLRHYSRPLQDFDEQVFTVAFAKKDGHHHHHHHH
modifications: synthetic peptide sequence - KalbTGt1-8xHis; K-albida_MTG; 8xHis-tag
notes: KalbTG enzyme without propeptide, expressed and purified with ammonium
Regarding B1, the Activity in test [4] (storage 4 ° C.) amounted to 1.4099 ± 0.1806 μmol NH3/min/mg Enzyme; in test [4] (storage −20 ° C.), 0.8630 ± 0.0259 μmol NH3/min/mg Enzyme.

B2: S. mobaraensis MTG: commercially available Streptomyces mobaraensis microbial transglutaminase (protein)
chain: MRIRRRALVFATMSAVLCTAGFMPSAGEAAADNGAGEETKSYAETYRLTADDVANINALNESAPAASSAGPSFRAPDSDDRVTPPAEPLDRMPDPYRPSYGRAETVVNNYIRKWQQVYSHRDGRKQQMTEEQREWLSYGCVGVTWVNSGQYPTNRLAFASFDEDRFKNELKNGRPRSGETRAEFEGRVAKESFDEEKGFQRAREVASVMNRALENAHDESAYLDNLKKELANGNDALRNEDARSPFYSALRNTPSFKERNGGNHDPSRMKAVIYSKHFWSGQDRSSSADKRKYGDPDAFRPAPGTGLVDMSRDRNIPRSPTSPGEGFVNFDYGWFGAQTEADADKTVWTHGNHYHAPNGSLGAMHVYESKFRNWSEGYSDFDRGAYVITFIPKSWNTAPDKVKQGWP
modifications: protein-glutamine gamma-glutamyltransferase
notes: commercially available Streptomyces mobaraensis microbial transglutaminase
Turning to B2, the Activity in test [4] (storage −20 ° C.) is 1.1348 ± 0.0059 μmol NH3/min/mg Enzyme.

B3: KalbTGt3: KalbTG enzyme from EcSlyD2-Xa-KalbTGt3-8×His after factor Xa and trypsin digest (protein)
chain: APLAPPLAEDRSYRTWRVEDYVEAWERYHGREMTEDERENLARGCIGVTVVNLNREDLSNPPLNLSFGSLRTAEAVQAALNKIVDTHPSPAQYEAAVAKDPILKRLKNVVKALPSWIDSAKLKASIFSKRFYSWQNPDWSEERAHTTYRPDRETDQVDMSTYRYRARPGYVNFDYGWFDQDTNTWWHANHEEPRMVVYQSTLRHYSRPLQDFDEQVFTVAFAKKDGGGSGHHHHHHHH
modifications: synthetic peptide sequence - KalbTGt3-8xHis-tag (post-trypsin digest); K-albida_MTG; 8xHis-tag
notes: KalbTG enzyme from EcSlyD2-Xa-KalbTGt3-8×His after factor Xa and trypsin digest
Turning to B3, the results for the Activity in test [4] (storage 4 ° C.) and in test [4] (storage −20 ° C.) were 0.1501 ± 0.0011 μmol NH3/min/mg Enzyme and 0.1528 ± 0.0400 μmol NH3/min/mg Enzyme, respectively.

For orientation: Km means the concentration of substrate that gives half-maximal velocity. Broadly, the Vmax is the top rate of the reaction or transport when substrate is in excess.
